Data taken from patent US11028315B2, “Zwitterionic surfactants suitable for enhanced oil recovery” (RHODIA OPERATIONS, priority 2016, dated 2021).
Several values for one entry are separate records, joined by “and”; a condition that tells them apart may be missing. Equal values may be shown once.

Legend:
Format in all cases: physicochemical
[1] = Phase behavior: optimal wt. % of co-surfactant leading to Will phase behavior in presence of crude oil
Experimental: (§1) 2.1 In the following examples, the performances of surfactants formulations containing the betaine of example 1.3.1 in a brine solution at 50 g/L NaCl were compared.
(§2) The total surfactant concentration was set at 8 g/L and the formulation variable was the wt. % of the more hydrophilic zwitterionic surfactant (considered as co-surfactant) in the surfactant blend.
(§3) The wt. % of the more hydrophilic zwitterionic leading to a Will phase behavior (optimal wt %. of co-surfactant), was determined in presence of crude oil at 40° C. and reported in Table 1. The solubility of surfactant blends was also analyzed.

[2] = Solubility of surfactant blends (absorbance)
Experimental: as §1, §2, §3
2.2. In terms of interfacial tension, all the blends studied led to ultra-low values (<10^−2 mN/m). On the other hand, only the hydrophilic amido betaine derived from a branched C12 acid (ADBB12) allows obtaining a homogeneous but opalescent water solution (absorbance of 0.46) at the optimal formulation (71 wt. %).

[3] = Interfacial tension calculated from solubility ratios at the equilibrium phase behavior
Experimental: as §3

[4] = Interfacial tension with crude oil by spinning drop methods; details: mixture of ADBB12 and the betaine from C23 ketones derived diamine at the optimal wt. %
Experimental: All the linear alkyl betaines, solutions separate in two phases or forms really turbid solutions (0.86 absorbance). Interfacial tension with crude oil of the mixture ADBB12 and the betaine from C23 ketones derived diamine at the optimal wt. % was evaluated by spinning drop methods. The ultra-low interfacial tension was confirmed (=10^−3 mN/m).

Optimal % co-surfactant ([1]; blend with betaine of example 1.3.1, brine 50 g/L NaCl, total surfactant 8 g/L, crude oil, 40° C., wt. % of co-surfactant in the blend): 71%
Optimal % co-surfactant ([1]; blend with sulfobetaine from C23 ketone derived diamine, same conditions as the betaines (50 g/L NaCl, 8 g/L, crude oil, 40° C.)): 64%
Absorbance ([2]; blend with betaine of example 1.3.1 at optimal wt. % co-surfactant, brine 50 g/L NaCl, total surfactant 8 g/L): 0.46 and 0.45
Absorbance ([2]; blend with sulfobetaine from C23 ketone derived diamine at optimal wt. % co-surfactant): 0.84
γw (interfacial tension) ([3]; blend with betaine of example 1.3.1 at optimal wt. %, brine 50 g/L NaCl, 8 g/L, crude oil, 40° C.): 3,4 mN/m · 10^3
γw (interfacial tension) ([3]; blend with sulfobetaine from C23 ketone derived diamine at optimal wt. %): 3.3 mN/m · 10^3
Interfacial tension with crude oil [4]: 10^−3 mN/m
SMILES: CCCCCCC(CCCC)C(=O)NCCC[N+](C)(C)CC(=O)[O-] (stereo not shown) [ADBB12]
